In ChEMBL document CHEMBL1143451, “The neuroprotective action of JNK3 inhibitors based on the 6,7-dihydro-5H-pyrrolo[1,2-a]imidazole scaffold” (Bioorg Med Chem Lett, 2005):

Experiments:
[1] = target: T1, Mitogen-activated protein kinase 14 (Homo sapiens, UniProt Q16539); experiment: Inhibitory activity against p38 at a concentration of 1.0 uM
[2] = target: T2, Mitogen-activated protein kinase 10 (Homo sapiens, UniProt P53779); experiment: Inhibitory activity against c-Jun N-terminal kinase 3 at a concentration of 1.0 uM
T2 sequence (P53779 whole entry): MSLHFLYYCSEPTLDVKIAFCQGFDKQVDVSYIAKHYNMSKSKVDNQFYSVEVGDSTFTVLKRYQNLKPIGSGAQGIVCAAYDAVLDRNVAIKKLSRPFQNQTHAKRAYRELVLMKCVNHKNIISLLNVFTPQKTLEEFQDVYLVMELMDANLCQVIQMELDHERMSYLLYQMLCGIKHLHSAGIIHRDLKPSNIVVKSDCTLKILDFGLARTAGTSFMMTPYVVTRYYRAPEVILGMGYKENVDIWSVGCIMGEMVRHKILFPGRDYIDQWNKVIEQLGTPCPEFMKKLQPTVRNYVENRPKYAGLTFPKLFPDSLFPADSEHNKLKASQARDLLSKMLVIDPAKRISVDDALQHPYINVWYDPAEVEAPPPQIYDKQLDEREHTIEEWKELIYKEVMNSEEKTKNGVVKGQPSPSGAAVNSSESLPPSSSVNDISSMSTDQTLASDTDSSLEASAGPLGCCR

[3] = target: T2, Mitogen-activated protein kinase 10; experiment: Inhibitory concentration against c-Jun N-terminal kinase 3 at a concentration of 1.0 uM
[4] = target: T1, Mitogen-activated protein kinase 14; experiment: Inhibitory concentration against p38 at a concentration of 1.0 uM

T1 sequence (Q16539 whole entry): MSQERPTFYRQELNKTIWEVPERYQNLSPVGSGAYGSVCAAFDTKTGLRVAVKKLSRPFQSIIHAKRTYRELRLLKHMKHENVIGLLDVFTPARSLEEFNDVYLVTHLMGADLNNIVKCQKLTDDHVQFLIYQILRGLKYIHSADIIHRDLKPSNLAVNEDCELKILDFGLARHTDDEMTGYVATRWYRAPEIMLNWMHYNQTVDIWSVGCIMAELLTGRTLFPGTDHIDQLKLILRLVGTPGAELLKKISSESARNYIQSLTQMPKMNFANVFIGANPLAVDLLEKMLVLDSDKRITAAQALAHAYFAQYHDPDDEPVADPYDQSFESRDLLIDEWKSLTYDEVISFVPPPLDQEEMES

Row | Compound | IC50 [1] [nM] | IC50 [2] [nM] | IC50 [3] [nM] | IC50 [4] [nM]
1 | CCCNc1nccc(-c2c(-c3ccc(F)cc3)nc3n2[C@@H](COCc2ccc(OC)cc2)CC3)n1 | 217 | 233 |  | 
2 | COc1ccc(COC[C@H]2CCc3nc(-c4ccc(F)cc4)c(-c4ccnc(N)n4)n32)cc1 | 116 | 270 |  | 
3 | CCCNc1nccc(-c2c(-c3ccc(F)cc3)nc3n2[C@H](CO)CC3)n1 | 28 | 2.5 |  | 
4 | O=C(NCCCn1cnc(-c2ccc(F)cc2)c1-c1ccncc1)c1ccccc1 |  |  | 130 | 
5 | [N-]=[N+]=Nc1cccc(-c2ncn(CCCNC(=O)c3ccc(I)cc3)c2-c2ccncc2)c1 |  |  |  | 46
6 | COc1ccc(COC[C@@H]2CCc3nc(-c4ccc(F)cc4)c(-c4ccnc(N)n4)n32)cc1 | 295 | 61.2 |  | 
7 | CCCNc1nccc(-c2c(-c3ccc(F)cc3)nc3n2[C@H](COCc2ccc(OC)cc2)CC3)n1 | 54 | 10.9 |  | 
8 | CCCNc1nccc(-c2c(-c3ccc(F)cc3)nc3n2[C@@H](CO)CC3)n1 | 31 | 3 |  | 
